Assay results published in patent US11147801B2, “Methods of use for trisubstituted benzotriazole derivatives as dihydroorotate oxygenase inhibitors” (Aurigene Discovery Technologies Limited, priority 2017, dated 2021).

Key:
DHODH = DHODH (Homo sapiens (Human), UniProt Q02127); test: DHODH activity assay (coupled enzyme assay, DCIP reduction); type: biochemical; conditions: read-out: DHODH inhibition activity, IC50 group
Method: The DHODH activity assay is a coupled enzyme assay in which oxidation of DHO and subsequent reduction of ubiquinone are stoichiometrically equivalent to the reduction of DCIP ([…]). The reduction of DCIP is accompanied by a loss of absorbance at 610 nm.
Buffer Preparation: 50 mM tris HCl, 150 mM KCl, and pH 8.0, 0.8% triton.
L-Dihydroorotic acid stock solution of 20 mM in buffer.
2, 6-Dichloroindophenol Sodium salt hydrate stock solution of 20 mM in buffer.
Decylubiquinone stock solution of 20 mM in buffer.
5 μL of Dimethyl sulfoxide or a compound of formula (I) in DMSO solution was added to the wells of a 96 well plate. Compounds of formula (I) were measured at 10 μM.
Protein along with buffer was added, so that the total volume including the DMSO was 87 μL. Compound and protein were incubated for half an hour at room temperature after mixing. 5 μL of 20 mM solution of L-Dihydroorotic acid, 5 μL of 2 mM solution of Decylubiquinone and 3 μL of 2 mM solution of 2, 6-Dichloroindophenol sodium salt hydrate were added to the above solution (total assay volume 100 μL). The mixture was stirred for 2 min and absorbance was recorded at every 10 min at 610 nanometers.
Percent inhibition is calculated as follows: […]
A 2 mM DMSO stock solution of the selected trisubstituted benzoimidazole and benzotriazole derivatives of formula (I) of the present invention to be examined was prepared. Subsequent ⅓rd dilutions were made.
5 μL of each stock of compound of formula (I) was used for each 100 μL assay. Therefore, 5 μL of the 2 mM stock provided 100 μL of 100 μM solution of compound of formula (I), when made up with buffer, protein and substrate. See also: Ulrich et al. (2001) Eur. J. Biochem.268, 1861-1868.

Ramos cells = test: Ramos proliferation assay (XTT); type: cell-based; conditions: Homo sapiens, 72 hrs; for inhibition at 30 µM: read-out: Maximum % Inhibition at 30 μM; for IC50: XTT
Excerpt: Cell proliferation assay is a sensitive method for quantification of viable cells in cytotoxicity or proliferation assay. The XTT (2,3-bis[2-Methoxy-4-nitro-5-sulfophenyl]-2 H-tetrazolium-5-carboxyanilide inner salt) system is a means of measuring the activity of living cells via mitochondrial dehydrogenases. Mitochondrial dehydrogenases of viable cells cleave the tetrazolium ring of XTT, yielding orange formazon crystals which are soluble in aqueous solutions. The XTT solution is potentiated by the addition of an electron coupling agent, phenazine methosulphate (PMS) to the reaction. The resulting orange colour is spectrophotometrically measured at 450 nm. An increase or decrease in cell numbers results in a concomitant change in the amount of formazon formed, indicating the degree of cytotoxicity caused by the test material.
Dissolve 17.7 g IMDM (Iscove's Modified Dulbecco's Medium) powder, 1.5 g sodium bicarbonate pH 7.2-7.4 in 1 L MiliQ water, add 1% Pencilin/ Streptomycin and 10% FBS.
Dissolve 10.6 g Ham's F12 powder, 1.5 g sodium bicarbonate pH 7.2-7.4 in 1 L MiliQ water, add 1% Penicillin/Streptomycin. DMSO used as vehicle.
Ramos cells were re-suspended to a density of 1×10^5 cells/ ml in complete IMDM medium. 95 μL of this cell suspension was added to the 96-well plate to seed ˜10,000 cells per well. The plates were incubated at 37° C. under a humidified atmosphere of 5% CO2 for ˜1 hour before compound addition.
Test compounds (Refer to Table 1) were dissolved in 100% DMSO to generate a 2/6/10/20 mM stock solution. A 200× concentration of the required final concentrations was prepared in DMSO. 10 μL of each concentration (200×) was then diluted in 90 μL of serum-free Ham's F12 medium to get an intermediate concentration of 20× in medium. The DMSO concentration in this step is 10% (Intermediate dilution). 5 μL of each intermediate dilution was then added in triplicates in the previously seeded 96-well plate. The final DMSO concentration was 0.5% in the experimental wells. Cells treated with 0.5% DMSO served as positive control. 100 μL, of complete IMDM medium served as media blank for data analysis. 200 μL, of 1× PBS was added in all corner wells of the assay plate. Plates were then incubated for 72 hrs in an incubator with 5% CO2 at 37° C.
On termination day, 100 μl of XTT solution (1 mg/ml XTT supplemented with 25 μM PMS in Ham's F12 medium) was added to each well. Plates were incubated for 2 hrs. The amount of formazon produced was determined by reading the absorbance of the plate using VICTOR X5 multilabel plate reader at wavelength of 450 nm. The IC50 values were determined as concentrations that reduced cell viability by 50% and the curve was plotted with GraphPad Prism 6.0.
Percent (%) Inhibition was calculated by normalizing DMSO control values to 100% using the formula: % Inhibition=[…](Abs450test compound−blank)/(Abs450positive control−blank)*100
Test compound contains cells, test compound, IMDM medium and 0.5% DMSO
Positive control contains cells, IMDM medium and 0.5% DMSO
Blank contains IMDM medium

DHODH, sequence (Q02127 whole entry): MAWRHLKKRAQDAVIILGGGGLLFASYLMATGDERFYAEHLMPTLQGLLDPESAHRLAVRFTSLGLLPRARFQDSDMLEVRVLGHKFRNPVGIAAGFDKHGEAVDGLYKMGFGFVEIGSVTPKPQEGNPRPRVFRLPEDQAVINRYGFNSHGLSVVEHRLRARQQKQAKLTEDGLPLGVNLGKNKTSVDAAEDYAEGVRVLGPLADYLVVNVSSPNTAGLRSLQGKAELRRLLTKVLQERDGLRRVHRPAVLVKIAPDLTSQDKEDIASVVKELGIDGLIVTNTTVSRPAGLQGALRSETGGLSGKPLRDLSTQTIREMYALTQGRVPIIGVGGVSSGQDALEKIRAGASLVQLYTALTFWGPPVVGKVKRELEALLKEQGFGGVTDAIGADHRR

Compound | IC50 (DHODH) [µM] | IC50 (Ramos cells) [µM] | inhibition at 30 µM (Ramos cells) [%] | inhibition at 10 µM (Ramos cells; 10 μM, read-out: Maximum % Inhibition (at 10 μM)) [%]
Cn1nnc2cc(-c3ccc(-c4cccc(CN5CCCC5)c4)cc3)cc(C(=O)O)c21 [Compound 17, 1-methyl-5-(3′-(pyrrolidin-1-ylmethyl)-[1,1′-biphenyl]-4-yl)-1H-benzo[d][1,2,3]triazole-7-carboxylic acid] | > 1 | – | 50 | –
CN1CCN(Cc2ccccc2-c2ccc(-c3cc(C(=O)O)c4nn(C)nc4c3)cc2)CC1 [Compound 30, 2-methyl-6-(2′-((4-methylpiperazin-1-yl)methyl)-[1,1′-biphenyl]-4-yl)-2H-benzo[d][1,2,3]triazole-4-carboxylic acid] | > 1 | – | 56 | –
Cn1nnc2cc(-c3ccc(-c4ccccc4CN4CCOCC4)cc3)cc(C(=O)O)c21 [Compound 25, 1-methyl-5-(2′-(morpholinomethyl)-[1,1′-biphenyl]-4-yl)-1H-benzo[d][1,2,3]triazole-7-carboxylic acid] | 0.101 to 1 | 2.82 | 120 | –
CN1CCN(Cc2cccc(-c3c(F)c(F)c(-c4cc(C(=O)O)c5c(c4)nnn5C)c(F)c3F)c2)CC1 [Compound 35, 1-methyl-5-(2,3,5,6-tetrafluoro-3′-((4-methylpiperazin-1-yl)methyl)-[1,1′-biphenyl]-4-yl)-1H-benzo[d][1,2,3]triazole-7-carboxylic acid] | > 1 | – | – | –
Cn1nc2cc(-c3ccc(-c4cccc(CN5CCOCC5)c4)cc3)cc(C(=O)O)c2n1 [Compound 16, 2-methyl-6-(3′-(morpholinomethyl)-[1,1′-biphenyl]-4-yl)-2H-benzo[d][1,2,3]triazole-4-carboxylic acid] | > 1 | 6.14 | 124 | –
CN(C)Cc1cccc(-c2c(F)c(F)c(-c3cc(C(=O)O)c4c(c3)nnn4C)c(F)c2F)c1 [Compound 40, 5-(3′-((dimethylamino)methyl)-2,3,5,6-tetrafluoro-[1,1′-biphenyl]-4-yl)-1-methyl-1H-benzo[d][1,2,3]triazole-7-carboxylic acid] | 0.101 to 1 | 11.8 | 84 | –
Cn1nc2cc(-c3ccc(-c4ccccc4CN4CCOCC4)cc3)cc(C(=O)O)c2n1 [Compound 26, 2-methyl-6-(2′-(morpholinomethyl)-[1,1′-biphenyl]-4-yl)-2H-benzo[d][1,2,3]triazole-4-carboxylic acid] | > 1 | 4.25 | 133 | –
Cn1nnc2cc(-c3ccc(-c4ccc(CN5CCOCC5)cc4)cc3)cc(C(=O)O)c21 [Compound 31, 1-methyl-5-(4′-(morpholinomethyl)-[1,1′-biphenyl]-4-yl)-1H-benzo[d][1,2,3]triazole-7-carboxylic acid] | > 1 | 1.35 | – | 81
Cc1ccc(C)n1-c1ccc(-c2cc(C(=O)O)c3c(c2)nnn3C)cc1 [Compound 12, 5-(4-(2,5-dimethyl-1H-pyrrol-1-yl)phenyl)-1-methyl-1H-benzo[d][1,2,3]triazole-7-carboxylic acid] | < 0.1 | 0.362 | 103 | –
CC(=O)Nc1cccc(-c2ccc(-c3cc(C(=O)O)c4c(c3)nnn4C)cc2)c1 [Compound 32, 5-(3′-acetamido-[1,1′-biphenyl]-4-yl)-1-methyl-1H-benzo[d][1,2,3]triazole-7-carboxylic acid] | > 1 | 14.6 | 74 | –
Cn1nc2cc(-c3c(F)c(F)c(-c4cccc(CN5CCOCC5)c4)c(F)c3F)cc(C(=O)O)c2n1 [Compound 39, 2-methyl-6-(2,3,5,6-tetrafluoro-3′-(morpholinomethyl)-[1,1′-biphenyl]-4-yl)-2H-benzo[d][1,2,3]triazole-4-carboxylic acid] | 0.101 to 1 | 1.87 | 96 | –
Cn1nnc2cc(-c3c(F)c(F)c(-c4cccc(CN5CCOCC5)c4)c(F)c3F)cc(C(=O)O)c21 [Compound 33, 1-methyl-5-(2,3,5,6-tetrafluoro-3′-(morpholinomethyl)-[1,1′-biphenyl]-4-yl)-1H-benzo[d][1,2,3]triazole-7-carboxylic acid] | 0.101 to 1 | – | – | –

Further lines, with some results ahead:

IC50 (DHODH) [µM] | IC50 (Ramos cells) [µM] | Compound | inhibition at 30 µM (Ramos cells) [%] | inhibition at 10 µM (Ramos cells; 10 μM, read-out: Maximum % Inhibition (at 10 μM)) [%]
> 1 | 8.41 | Cn1nnc2cc(-c3ccc(-c4cccc(CN5CCOCC5)c4)cc3)cc(C(=O)O)c21 [Compound 15, 1-methyl-5-(3′-(morpholinomethyl)-[1,1′-biphenyl]-4-yl)-1H-benzo[d][1,2,3]triazole-7-carboxylic acid] | 96 | –
0.101 to 1 | 1.6 | Cn1nc2cc(-c3c(F)c(F)c(-c4cccc(CN5CCCCC5)c4)c(F)c3F)cc(C(=O)O)c2n1 [Compound 38, 2-methyl-6-(2,3,5,6-tetrafluoro-3′-(piperidin-1-ylmethyl)-[1,1′-biphenyl]-4-yl)-2H-benzo[d][1,2,3]triazole-4-carboxylic acid] | 92 | –
< 0.1 | 0.154 | Cc1ccccc1-c1ccc(-c2cc(C(=O)O)c3nn(C)nc3c2)cc1 [Compound 8, 2-methyl-6-(2′-methyl-[1,1′-biphenyl]-4-yl)-2H-benzo[d][1,2,3]triazole-4-carboxylic acid] | 103 | –
0.101 to 1 | 3.88 | Cc1ccc(C)n1-c1ccc(-c2cc(C(=O)O)c3nn(C)nc3c2)cc1 [Compound 13, 6-(4-(2,5-dimethyl-1H-pyrrol-1-yl)phenyl)-2-methyl-2H-benzo[d][1,2,3]triazole-4-carboxylic acid] | 100 | –
> 1 | 3.72 | Cn1nnc2c(C(=O)O)cc(-c3ccc(-c4cccc(CN5CCCCC5)c4)cc3)cc21 [Compound 20, 1-methyl-6-(3′-(piperidin-1-ylmethyl)-[1,1′-biphenyl]-4-yl)-1H-benzo[d][1,2,3]triazole-4-carboxylic acid] | 129 | –
0.101 to 1 | 1.45 | Cn1nc2cc(-c3ccc(-c4ccccc4)cc3)cc(C(=O)O)c2n1 [Compound 4, 6-([1,1′-biphenyl]-4-yl)-2-methyl-2H-benzo[d][1,2,3]triazole-4-carboxylic acid] | 107 | –
0.101 to 1 | – | CC(C)NCc1cccc(-c2c(F)c(F)c(-c3cc(C(=O)O)c4c(c3)nnn4C)c(F)c2F)c1 [Compound 36, 1-methyl-5-(2,3,5,6-tetrafluoro-3′-((isopropylamino)methyl)-[1,1′-biphenyl]-4-yl)-1H-benzo[d][1,2,3]triazole-7-carboxylic acid] | – | –
> 1 | – | CNCc1cccc(-c2c(F)c(F)c(-c3cc(C(=O)O)c4c(c3)nnn4C)c(F)c2F)c1 [Compound 37, 1-methyl-5-(2,3,5,6-tetrafluoro-3′-((methylamino)methyl)-[1,1′-biphenyl]-4-yl)-1H-benzo[d][1,2,3]triazole-7-carboxylic acid] | – | –
